In patent US9133262B2, “Somatostatin antagonists” (Ipsen Pharma S.A.S., priority 1996, dated 2015):
pIC50: −log10 of the molar value. Positions of bridges follow the written chain, without caps; N, C: chain ends. Non-standard residues stand in square brackets, D forms with d. Residues, ends and D or L forms follow the SMILES beside them. Phe(4-Br) = N[C@@H](Cc1ccc(Br)cc1)C(=O)O; Phe(4-Cl) = N[C@@H](Cc1ccc(Cl)cc1)C(=O)O; Phe(4-F) = N[C@@H](Cc1ccc(F)cc1)C(=O)O; Phe(4-I) = N[C@@H](Cc1ccc(I)cc1)C(=O)O; dPhe(4-F) = N[C@H](Cc1ccc(F)cc1)C(=O)O; 2Nal = N[C@@H](Cc1ccc2ccccc2c1)C(=O)O; Bta = N[C@@H](Cc1csc2ccccc12)C(=O)O; 3Pal = N[C@@H](Cc1cccnc1)C(=O)O; Tle = CC(C)(C)[C@H](N)C(=O)O

tested on: rat pituitary cells; assay type: cell-based; conditions: 3 h
In short: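 Dispersed adult male rat pituitary cells, cultured 4-5 days, were exposed 3 h at 37° C in medium 199 with 1% BSA to 6 antagonist doses plus 1 nM SRIF and 1 nM GRF(1-29)NH2, in triplicate. GH in medium measured by radioimmunoassay; IC50 versus 1 nM SRIF fitted, maximum constrained to GRF-stimulated control.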

Compared with CC(C)[C@@H]1NC(=O)[C@H](CCCCN)NC(=O)[C@@H](Cc2c[nH]c3ccccc23)NC(=O)[C@H](Cc2csc3ccccc23)NC(=O)[C@H](NC(=O)[C@@H](N)Cc2ccc3ccccc3c2)CSSC[C@@H](C(=O)N[C@@H](Cc2ccc3ccccc3c2)C(N)=O)NC1=O [Analog No. 49, H2-β-Nal-D-Cys-Bta-D-Trp-Lys-Val-Cys-β-Nal-NH2] (H-[2Nal][dC][Bta][dW]KVC[2Nal]-NH2; disulfide 2-7), CC(C)[C@@H]1NC(=O)[C@H](CCCCN)NC(=O)[C@@H](Cc2c[nH]c3ccccc23)NC(=O)[C@H](Cc2cccnc2)NC(=O)[C@H](NC(=O)[C@@H](N)Cc2ccc(Cl)cc2)CSSC[C@@H](C(=O)N[C@@H](Cc2ccc3ccccc3c2)C(N)=O)NC1=O [Analog No. 55, H2-p-Cl-Phe-D-Cys-Pal-D-Trp-Lys-Val-Cys-β-Nal-NH2] (H-[Phe(4-Cl)][dC][3Pal][dW]KVC[2Nal]-NH2; disulfide 2-7) is 1.95 log units higher in pIC50: 6.64 for the first, 8.59 for the second. The second is the more potent here.

Going from CC(C)(C)[C@@H]1NC(=O)[C@H](CCCCN)NC(=O)[C@@H](Cc2c[nH]c3ccccc23)NC(=O)[C@H](Cc2cccnc2)NC(=O)[C@H](NC(=O)[C@@H](N)Cc2ccc(F)cc2)CSSC[C@@H](C(=O)N[C@@H](Cc2ccc3ccccc3c2)C(N)=O)NC1=O [Analog No. 50, H2-p-F-Phe-D-Cys-Pal-D-Trp-Lys-Tle-Cys-β-Nal-NH2] (H-[Phe(4-F)][dC][3Pal][dW]K[Tle]C[2Nal]-NH2; disulfide 2-7) to CC(C)(C)[C@@H]1NC(=O)[C@H](CCCCN)NC(=O)[C@@H](Cc2c[nH]c3ccccc23)NC(=O)[C@H](Cc2cccnc2)NC(=O)[C@H](NC(=O)[C@H](N)Cc2ccc(F)cc2)CSSC[C@@H](C(=O)N[C@@H](Cc2ccc3ccccc3c2)C(N)=O)NC1=O [Analog No. 51, H2-D-p-F-Phe-D-Cys-Pal-D-Trp-Lys-Tle-Cys-β-Nal-NH2] (H-[dPhe(4-F)][dC][3Pal][dW]K[Tle]C[2Nal]-NH2; disulfide 2-7), the pIC50 falls from 8.96 to 7.92 (1.04 log units). The first is the more potent here.

CC(C)[C@@H]1NC(=O)[C@H](CCCCN)NC(=O)[C@@H](Cc2c[nH]c3ccccc23)NC(=O)[C@H](Cc2cccnc2)NC(=O)[C@H](NC(=O)[C@@H](N)Cc2ccc(Br)cc2)CSSC[C@@H](C(=O)N[C@@H](Cc2ccc(Br)cc2)C(N)=O)NC1=O [Analog No. 52, H2-Bpa-D-Cys-Pal-D-Trp-Lys-Val-Cys-Bpa-NH2] (H-[Phe(4-Br)][dC][3Pal][dW]KVC[Phe(4-Br)]-NH2; disulfide 2-7) and CC(C)[C@@H]1NC(=O)[C@H](CCCCN)NC(=O)[C@@H](Cc2c[nH]c3ccccc23)NC(=O)[C@H](Cc2cccnc2)NC(=O)[C@H](NC(=O)[C@@H](N)Cc2ccc(I)cc2)CSSC[C@@H](C(=O)N[C@@H](Cc2ccc(I)cc2)C(N)=O)NC1=O [Analog No. 53, H2-Iph-D-Cys-Pal-D-Trp-Lys-Val-Cys-Iph-NH2] (H-[Phe(4-I)][dC][3Pal][dW]KVC[Phe(4-I)]-NH2; disulfide 2-7) are within 0.2 log units of each other in pIC50: 8.59 for the first, 8.54 for the second.

First: CC(C)(C)[C@@H]1NC(=O)[C@H](CCCCN)NC(=O)[C@@H](Cc2c[nH]c3ccccc23)NC(=O)[C@H](Cc2cccnc2)NC(=O)[C@H](NC(=O)[C@@H](N)Cc2c[nH]c3ccccc23)CSSC[C@@H](C(=O)N[C@@H](Cc2ccc3ccccc3c2)C(N)=O)NC1=O [Analog No. 54, H2-Trp-D-Cys-Pal-D-Trp-Lys-Tle-Cys-β-Nal-NH2] (H-W[dC][3Pal][dW]K[Tle]C[2Nal]-NH2; disulfide 2-7)
Second: CC(C)(C)[C@@H]1NC(=O)[C@H](CCCCN)NC(=O)[C@@H](Cc2c[nH]c3ccccc23)NC(=O)[C@H](Cc2cccnc2)NC(=O)[C@H](NC(=O)[C@@H](N)Cc2ccc(Cl)cc2)CSSC[C@@H](C(=O)N[C@@H](Cc2ccc3ccccc3c2)C(N)=O)NC1=O [Analog No. 56, H2-p-Cl-Phe-D-Cys-Pal-D-Trp-Lys-Tle-Cys-β-Nal-NH2] (H-[Phe(4-Cl)][dC][3Pal][dW]K[Tle]C[2Nal]-NH2; disulfide 2-7)
The pIC50 of the first is 1.20 log units lower: 7.54 for the first, 8.74 for the second. The second is the more potent here.

Compound CC(C)(C)[C@@H]1NC(=O)[C@H](CCCCN)NC(=O)[C@@H](Cc2c[nH]c3ccccc23)NC(=O)[C@H](Cc2cccnc2)NC(=O)[C@H](NC(=O)[C@@H](N)Cc2ccc(Cl)cc2)CSSC[C@@H](C(=O)N[C@@H](Cc2ccc(Cl)cc2)C(N)=O)NC1=O [Analog No. 57, H2-p-Cl-Phe-D-Cys-Pal-D-Trp-Lys-Tle-Cys-p-Cl-Phe-NH2] (H-[Phe(4-Cl)][dC][3Pal][dW]K[Tle]C[Phe(4-Cl)]-NH2; disulfide 2-7) has a pIC50 of 8.23.
